Measured values reported in patent US9983218B2, “Indole and indoline derivatives and methods of use thereof” (AbbVie Inc., priority 2008, dated 2018).

Test system: SK-N-SH human neuroblastoma cells
Assay: Serum deprivation/JC-1 mitochondrial membrane potential (MMP) assay
Assay type: cell-based
Settings: Homo sapiens; for Emax: SK-N-SH, percent maximal intensity in JC-1 ratio normalized to 10 μM dimebolin, read-out: JC-1 max %; for EC50: SK-N-SH cells, serum deprivation ~18 hours, JC-1 ratio normalized to peak value for 10 μM dimebolin, single curve fit to mean data of n=2-3, read-out: EC50
Summary of the method: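 Cells were serum-deprived ~18 h in MEM with or without compound (DMSO ≤1%), then stained with JC-1 for 35 min at 37° C. The red/green fluorescence ratio (560/595 vs 485/535 nm) was normalized to the peak response of 10 μM dimebolin. EC50 came from one curve fit to mean data (n=2-3, duplicates).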

Structure (SMILES)	Emax [%]	EC50 [µM]
c1cncc(Cn2c3c(c4ccccc42)CN2CCC3CC2)c1 [Example 188, 6-(pyridin-3-ylmethyl)-3,4,5,6-tetrahydro-1H-2,5-ethanoazepino[4,3-b]indole]	96	6.52
c1ccc2c(c1)c1c(n2Cc2ccncc2)C2CCN(CC2)C1 [Example 189, 6-[(pyridin-4-yl)methyl]-3,4,5,6-tetrahydro-1H-2,5-ethanoazepino[4,3-b]indole]	107	11.3
FC12CC3CC(CN(C3)C1)c1c2c2ccccc2n1Cc1ccc(Cl)nc1 (stereo not shown) [Example 190, 8-[(6-chloropyridin-3-yl)methyl]-1-fluoro-1,4,5,6,7,8-hexahydro-2H-1,5:3,7-dimethanoazonino[5,4-b]indole]	175	5.06
Fc1ccc2c(c1)c1c(n2Cc2ccnc(F)c2)C2CCN(CC2)C1 [Example 191, 9-fluoro-6-[(2-fluoropyridin-4-yl)methyl]-3,4,5,6-tetrahydro-1H-2,5-ethanoazepino[4,3-b]indole]	112	7.04
Cc1ccc2c(c1)c1c(n2CCc2ccc(Cl)nc2)C2CC3CC1CN(C3)C2 (stereo not shown) [Example 196, 8-[2-(6-chloropyridin-3-yl)ethyl]-11-methyl-1,4,5,6,7,8-hexahydro-2H-1,5:3,7-dimethanoazonino[5,4-b]indole]	182	3.91
Cc1ccc2c(c1)c1c(n2CCc2ccccc2C)C2CC3CC1CN(C3)C2 (stereo not shown) [Example 197, 11-methyl-8-[2-(2-methylphenyl)ethyl]-1,4,5,6,7,8-hexahydro-2H-1,5:3,7-dimethanoazonino[5,4-b]indole]	173	5.63
Cc1ccc2c(c1)c1c(n2CCc2ccc(C)nc2)C2CCCN(C1)C2 (stereo not shown) [Example 202, 10-methyl-7-[2-(6-methylpyridin-3-yl)ethyl]-1,3,4,5,6,7-hexahydro-2,6-methanoazocino[4,3-b]indole]	239	3.07
Cc1ccc2c(c1)c1c(n2CCc2ccccc2C)C2CCCN(C1)C2 (stereo not shown) [Example 203, 10-methyl-7-[2-(2-methylphenyl)ethyl]-1,3,4,5,6,7-hexahydro-2,6-methanoazocino[4,3-b]indole]	159	4.53
Cc1ccc2c(c1)c1c(n2CCc2ccc(Cl)cc2)C2CCCN(C1)C2 (stereo not shown) [Example 204, 7-[2-(4-chlorophenyl)ethyl]-10-methyl-1,3,4,5,6,7-hexahydro-2,6-methanoazocino[4,3-b]indole]	182	3.23
Cc1ccc2c(c1)c1c(n2S(=O)(=O)c2ccc(Cl)cc2)C2CCN1CC2 [Example 215, 5-[(4-chlorophenyl)sulfonyl]-8-methyl-2,3,4,5-tetrahydro-1,4-ethanopyrido[3,2-b]indole]	196	3.34
Cc1ccc2c(c1)c1c(n2-c2ccc3ccncc3c2)C2CCN(CC2)C1 [Example 216, 6-isoquinolin-7-yl-9-methyl-3,4,5,6-tetrahydro-1H-2,5-ethanoazepino[4,3-b]indole]	284	4.2
Cc1ccc2c(c1)c1c(n2-c2ccc3ncccc3c2)C2CCN(CC2)C1 [Example 217, 9-methyl-6-quinolin-6-yl-3,4,5,6-tetrahydro-1H-2,5-ethanoazepino[4,3-b]indole]	182	2.94
Cc1ccc2c(c1)c1c(n2-c2ccc3ncncc3c2)C2CCN(CC2)C1 [Example 219, 9-methyl-6-quinazolin-6-yl-3,4,5,6-tetrahydro-1H-2,5-ethanoazepino[4,3-b]indole]	201	3.07
Cc1ccc2c(c1)c1c(n2-c2ccc3ccccc3n2)C2CCN(CC2)C1 [Example 222, 9-methyl-6-quinolin-2-yl-3,4,5,6-tetrahydro-1H-2,5-ethanoazepino[4,3-b]indole]	215	4.43
Fc1ccc2c(c1)c1c(n2-c2ccc3ccncc3c2)C2CCN(CC2)C1 [Example 223, 9-fluoro-6-isoquinolin-7-yl-3,4,5,6-tetrahydro-1H-2,5-ethanoazepino[4,3-b]indole]	287	3.84
Fc1ccc2c(c1)c1c(n2-c2ccc3ccccc3n2)C2CCN(CC2)C1 [Example 224, 9-fluoro-6-quinolin-2-yl-3,4,5,6-tetrahydro-1H-2,5-ethanoazepino[4,3-b]indole]	215	3.17
Fc1ccc2c(c1)c1c(n2-c2cccc(-n3cccn3)n2)C2CCN(CC2)C1 [Example 225, 9-fluoro-6-[6-(1H-pyrazol-1-yl)pyridin-2-yl]-3,4,5,6-tetrahydro-1H-2,5-ethanoazepino[4,3-b]indole]	209	2.74
Fc1ccc2c(c1)c1c(n2-c2ccc3cccnc3c2)C2CCN(CC2)C1 [Example 226, 9-fluoro-6-quinolin-7-yl-3,4,5,6-tetrahydro-1H-2,5-ethanoazepino[4,3-b]indole]	307	1.68

Structure (SMILES)	Emax [%]	EC50 [µM]
Fc1ccc2c(c1)c1c(n2-c2ccc3ncncc3c2)C2CCN(CC2)C1 [Example 227, 9-fluoro-6-quinazolin-6-yl-3,4,5,6-tetrahydro-1H-2,5-ethanoazepino[4,3-b]indole]	266	3.62
Cc1ccc2cc(-n3c4c(c5ccccc53)CN3CCC4CC3)ccc2n1 [Example 232, 6-(2-methylquinolin-6-yl)-3,4,5,6-tetrahydro-1H-2,5-ethanoazepino[4,3-b]indole]	220	0.81
c1cnc2ccc(-n3c4c(c5ccccc53)CN3CCC4CC3)cc2c1 [Example 233, 6-quinolin-6-yl-3,4,5,6-tetrahydro-1H-2,5-ethanoazepino[4,3-b]indole]	250	0.8
c1cnc2cc(-n3c4c(c5ccccc53)CN3CCC4CC3)ccc2c1 [Example 234, 6-quinolin-7-yl-3,4,5,6-tetrahydro-1H-2,5-ethanoazepino[4,3-b]indole]	281	1.27
c1ccc2nc(-n3c4c(c5ccccc53)CN3CCC4CC3)ccc2c1 [Example 235, 6-quinolin-2-yl-3,4,5,6-tetrahydro-1H-2,5-ethanoazepino[4,3-b]indole]	252	3.96
c1cc(-n2cccn2)nc(-n2c3c(c4ccccc42)CN2CCC3CC2)c1 [Example 236, 6-[6-(1H-pyrazol-1-yl)pyridin-2-yl]-3,4,5,6-tetrahydro-1H-2,5-ethanoazepino[4,3-b]indole]	268	1.74
CN1CCN(c2ccc(-n3c4c(c5ccccc53)CN3CCC4CC3)cc2)CC1 [Example 237, 6-[4-(4-methylpiperazin-1-yl)phenyl]-3,4,5,6-tetrahydro-1H-2,5-ethanoazepino[4,3-b]indole]	174	2.48
O=c1cccnn1CCn1c2c(c3cc(F)ccc31)CN1CCC2CC1 [Example 238, 2-[2-(9-fluoro-1,3,4,5-tetrahydro-6H-2,5-ethanoazepino[4,3-b]indol-6-yl)ethyl]pyridazin-3(2H)-one]	86.5	11.6
CC1CCCN1c1ccc(Cn2c3c(c4cc(F)ccc42)CN2CCC3CC2)cn1 (stereo not shown) [Example 240, 9-fluoro-6-{[6-(2-methylpyrrolidin-1-yl)pyridin-3-yl]methyl}-3,4,5,6-tetrahydro-1H-2,5-ethanoazepino[4,3-b]indole]	170	3.33
Fc1ccc2c(c1)c1c(n2Cc2ccc(N3CCCCC3)nc2)C2CCN(CC2)C1 [Example 241, 9-fluoro-6-{[6-(piperidin-1-yl)pyridin-3-yl]methyl}-3,4,5,6-tetrahydro-1H-2,5-ethanoazepino[4,3-b]indole]	156	7.96
CC(C)N(C)c1ccc(Cn2c3c(c4cc(F)ccc42)CN2CCC3CC2)cn1 [Example 242, 5-[(9-fluoro-1,3,4,5-tetrahydro-6H-2,5-ethanoazepino[4,3-b]indol-6-yl)methyl]-N-isopropyl-N-methylpyridin-2-amine]	169	8.12
CN(CC1OCCO1)c1ccc(Cn2c3c(c4cc(F)ccc42)CN2CCC3CC2)cn1 [Example 243, N-(1,3-dioxolan-2-ylmethyl)-5-[(9-fluoro-1,3,4,5-tetrahydro-6H-2,5-ethanoazepino[4,3-b]indol-6-yl)methyl]-N-methylpyridin-2-amine]	169	8.36
Fc1ccc2c(c1)c1c(n2Cc2ccc(N3CCCC3)nc2)C2CCN(CC2)C1 [Example 244, 9-fluoro-6-{[6-(pyrrolidin-1-yl)pyridin-3-yl]methyl}-3,4,5,6-tetrahydro-1H-2,5-ethanoazepino[4,3-b]indole]	226	5.65
COCCN(C)c1ccc(Cn2c3c(c4cc(F)ccc42)CN2CCC3CC2)cn1 [Example 245, 5-[(9-fluoro-1,3,4,5-tetrahydro-6H-2,5-ethanoazepino[4,3-b]indol-6-yl)methyl]-N-(2-methoxyethyl)-N-methylpyridin-2-amine]	189	10
Fc1cncc(Cn2c3c(c4cc(F)ccc42)CN2CCC3CC2)c1 [Example 246, 9-fluoro-6-[(5-fluoropyridin-3-yl)methyl]-3,4,5,6-tetrahydro-1H-2,5-ethanoazepino[4,3-b]indole]	148	8.76
Fc1ccc2c(c1)c1c(n2Cc2ccc(-n3cccn3)nc2)C2CCN(CC2)C1 [Example 247, 9-fluoro-6-{[6-(1H-pyrazol-1-yl)pyridin-3-yl]methyl}-3,4,5,6-tetrahydro-1H-2,5-ethanoazepino[4,3-b]indole]	192	4.65
Fc1ccc2c(c1)c1c(n2Cc2cnc(-c3ccccc3)nc2)C2CCN(CC2)C1 [Example 249, 9-fluoro-6-[(2-phenylpyrimidin-5-yl)methyl]-3,4,5,6-tetrahydro-1H-2,5-ethanoazepino[4,3-b]indole]	133	5.27
